Laboratory results from US10258701B2, “Labeled evans blue dye derivative for in vivo serum albumin labeling” (The United States of America, as represented by the …, priority 2015, dated 2019).
Like-named read-outs stand apart in the source and are kept apart here.

Tests used:
[1] = target: albumin (Homo sapiens, UniProt P02768); assay: Absorbance and fluorescence emission of Evans blue with and without albumin; type: physicochemical
Description: FIGS. 1A and 1B show the absorbance and fluorescence emission of Evans blue with and without albumin. […] Evans blue is almost not fluorescent without albumin.
After forming a complex with serum albumin, both NEB and EB became fluorescent. Since only trace amount of NEB was mixed with EB, the majority of the fluorescence came from EB. […] With optical imaging, the migration of the injected EB/NEB in lymphatics could be clearly observed after local injection. The fluorescence signal first reached the popliteal LN then migrated to the sciatic LN (FIG. 22). Ninety min after tracer injection, both LNs were clearly visualized by fluorescence optical imaging. Under bright light, apparent blue dye accumulation could also be seen by the naked eye (FIGS. 23A and 23B). PET and optical imaging were also performed with the same animal after injection of ^18F-AlF-NEB/EB. An overlay of the two images provided high positional correlation of the LNs (FIGS. 24A and 24B).

[2] = tested on: platelet aggregation; details: cited from earlier work
[3] = tested on: lymph nodes; assay: Amount of EB dye in lymph nodes after local co-injection of 18F-AlF-NEB and EB; details: ex vivo
Experimental: Ninety min after local injection, both popliteal LN sites could be distinguished clearly by the apparent blue color, indicating the local accumulation of the dye molecules. The left sciatic LNs could also be seen but with much lower uptake of dye (FIGS. 19A and 19B). There was significant difference in weight between the popliteal LNs on the tumor side and the contralateral side but not between the sciatic LNs (popliteal LNs: 3.582±0.762 vs. 1.995±0.759 mg, p<0.05; sciatic LNs: 1.558±0.731 vs. 1.403±0.632 mg, p>0.05) (FIG. 20). […] However, there was no difference in the amount of EB between two sciatic LNs (0.030±0.008 μg vs. 0.028±0.015 μg, p>0.05). These ex vivo results were consistent with in vivo PET data.

[4] = tested on: UM-22B tumors; set-up: species or system mice; details: female, athymic nude, mouse, in vivo
Experimental: All animal studies were conducted in accordance with the principles and procedures outlined in the Guide for the Care and Use of Laboratory Animals and were approved by the Institutional Animal Care and Use Committee of the Clinical Center, NIH. The UM-22B human head and neck carcinoma cancer cell line was grown in DMEM medium supplemented with 10% fetal bovine serum (FBS), 100 IU/mL penicillin, and 100 μg/mL streptomycin (Invitrogen), and in a humidified atmosphere containing 5% CO2 at 37° C. The tumor model was developed in 5 to 6 week old female athymic nude mice (Harlan Laboratories) by injection of 5×10^6 cells into their right shoulders. The mice underwent small-animal PET studies when the tumor volume reached 100-300 mm^3 (2-3 weeks after inoculation).
PET scans and image analysis were performed using an Inveon small animal PET scanner (Siemens Medical Solutions). About 3.7 MBq of ^18F-AlF-NEB or ^18F-FB-Albumin or 7.4 MBq of ^64Cu-NEB was administered via tail vein injection under isoflurane anesthesia. For normal mice, 60-min dynamic PET scans were acquired. For tumor mice, 60-min dynamic PET scans were acquired, followed by a series of late time point scans at 2, 4, and 24 h (^64Cu only) after tracer injection. With acute inflammation model, 5-min static PET images were acquired at 30 min, 1 h and 2 h postinjection (n=3-5 per group). The images were reconstructed using a two-dimensional ordered-subset expectation maximum (2D OSEM) algorithm, and no correction was applied for attenuation or scatter. For each scan, regions of interest (ROIs) were drawn using vendor software (ASI Pro 5.2.4.0) on decay-corrected whole-body coronal images. The radioactivity concentrations (accumulation) within the heart, muscle, liver, and kidneys were obtained from mean pixel values within the multiple ROI volume and then converted to MBq per milliliter. These values were then divided by the administered activity to obtain (assuming a tissue density of 1 g/ml) an image-ROI-derived percent injected dose per gram (% ID/g).
Malignant tumors are characterized by torturous blood vessels and high vascular permeability. Besides, the anti-angiogenesis and “normalization” of tumor vasculature have been intensively investigated. Unlike radiolabeled RBCs, albumin can be used to study vascular permeability in tumors. NEB was labeled with ^64Cu, a positron emitter with longer half-life (t1/1=12.6 h) than ^18F (t1/2=109.8 min). A UM-22B xenograft model was developed and performed 60-min dynamic scan and then static scans at late time points up to 24 h. The in vivo distribution of ^64Cu-NEB was very similar to that of ^18F-AlF-NEB with most of radioactivity retained in the circulation system (FIG. 4A). Even at 4 h after tracer injection, radioactivity within heart region and major vessels was still dominant. […] At 24 h after tracer injection, the tumor uptake was still at a relatively high level (8.07±1.01% ID/g). The tracer uptake over the heart region was 16.09±0.51% ID/g at 1 h p.i., which dropped to 8.58±0.81% ID/g at 24 h (FIG. 5B).

[5] = human, in vivo
Experimental: A dosimetry study was also performed based on the PET imaging data.

[6] = ninety min after local injection

Sequence of albumin (P02768 25-609, species assumed): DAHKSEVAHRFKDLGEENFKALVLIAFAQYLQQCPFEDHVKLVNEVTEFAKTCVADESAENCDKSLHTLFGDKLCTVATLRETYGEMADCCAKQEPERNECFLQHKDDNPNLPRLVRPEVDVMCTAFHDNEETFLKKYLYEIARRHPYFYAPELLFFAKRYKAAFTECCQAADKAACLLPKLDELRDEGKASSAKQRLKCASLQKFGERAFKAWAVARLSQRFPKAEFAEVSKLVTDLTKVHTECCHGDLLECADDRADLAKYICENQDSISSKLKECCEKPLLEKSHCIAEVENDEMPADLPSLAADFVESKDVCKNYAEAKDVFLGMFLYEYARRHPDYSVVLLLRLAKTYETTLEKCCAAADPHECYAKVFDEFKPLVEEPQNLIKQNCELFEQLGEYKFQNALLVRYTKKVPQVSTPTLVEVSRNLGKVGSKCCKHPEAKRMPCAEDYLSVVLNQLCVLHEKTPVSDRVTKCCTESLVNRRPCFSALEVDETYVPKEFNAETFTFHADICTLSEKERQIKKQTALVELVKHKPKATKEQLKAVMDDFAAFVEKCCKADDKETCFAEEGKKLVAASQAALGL

Row | Compound | fluorescence emission peak ([1]; only with albumin) | absorbance peak ([1]; with or without albumin) | threshold concentration for induction of platelet aggregation [2] | amount of EB in sciatic LNs, first value of the pair ([3]; presumably left side) | amount of EB in sciatic LNs, second value of the pair ([3]; presumably right side) | amount of EB dye in left popliteal LNs [3, 6] | amount of EB dye in right popliteal LNs [3, 6] | tracer uptake over the heart region ([4]; 1 h) | tumor uptake ([4]; 1 h) | tumor uptake ([4]; 2 h) | tracer uptake over the heart region ([4]; 24 h) | tumor uptake ([4]; 24 h) | absorbed dose, red bone marrow [5]
1 | Cc1cc(-c2ccc(/N=N/c3ccc4c(S(=O)(=O)O)cc(S(=O)(=O)O)c(N)c4c3O)c(C)c2)ccc1/N=N/c1ccc2c(S(=O)(=O)O)cc(S(=O)(=O)O)c(N)c2c1O [EB, Evans blue] | 680 nm | 620 nm | about 100 μM | 0.030 ± 0.008 µg | 0.028 ± 0.015 µg | 0.144 ± 0.034 µg | 0.091 ± 0.029 µg | – | – | – | – | – | –
2 | Cc1cc(-c2ccc(NC(=O)CN3CCN4CCN(CC3)CC(=O)[O][64Cu][O]C(=O)C4)c(C)c2)ccc1N=Nc1ccc2c(S(=O)(=O)O)cc(S(=O)(=O)O)c(N)c2c1O [^64Cu-NEB] | – | – | – | – | – | – | – | 16.09±0.51 % ID/g | 5.73±1.11 % ID/g | 8.03±0.77 % ID/g | 8.58±0.81 % ID/g | 8.07±1.01 % ID/g | 6.14 mSv
